# Results as given in patent US6962920B2, “Pyrimidine derivatives and methods of making and using these derivatives” (Duquesne University of the Holy Ghost, priority 1992, dated 2005).
# Like-named read-outs stand apart in the source and are kept apart here.
# Columns and labels:
# IGROV1 = assay: NCI in vitro anti-cancer activity, Ovarian Cancer; type: cell-based
# CAKI-1 = assay: NCI in vitro anti-cancer activity, Renal Cancer; type: cell-based
# SW-620 = assay: NCI in vitro anti-cancer activity, Colon Cancer; type: cell-based
# M14 = assay: NCI in vitro anti-cancer activity, Melanoma; type: cell-based
# EKVX = type: cell-based
# DU-145 = assay: NCI in vitro anti-cancer activity, Prostate Cancer; type: cell-based
# NCI-H226 = type: cell-based
# SK-OV-3 = assay: NCI in vitro anti-cancer activity, Ovarian Cancer; type: cell-based
# COLO 205 = assay: NCI in vitro anti-cancer activity, Colon Cancer; type: cell-based
# SF-295 = assay: NCI in vitro anti-cancer activity, CNS Cancer; type: cell-based
# OVCAR-4 = assay: NCI in vitro anti-cancer activity, Ovarian Cancer; type: cell-based
# SN12C = assay: NCI in vitro anti-cancer activity, Renal Cancer; type: cell-based
# LOX IMVI = assay: NCI in vitro anti-cancer activity, Melanoma; type: cell-based
# U251 = assay: NCI in vitro anti-cancer activity, CNS Cancer; type: cell-based
# SNB-75 = assay: NCI in vitro anti-cancer activity, CNS Cancer; type: cell-based
# 786-0 = assay: NCI in vitro anti-cancer activity, Renal Cancer; type: cell-based
# SNB-19 = assay: NCI in vitro anti-cancer activity, CNS Cancer; type: cell-based
# SK-MEL-28 = assay: NCI in vitro anti-cancer activity, Melanoma; type: cell-based
# KM12 = assay: NCI in vitro anti-cancer activity, Colon Cancer; type: cell-based
# MDA-MB-231/ATCC = assay: NCI in vitro anti-cancer activity, Breast Cancer; type: cell-based
# NCI-H23 = type: cell-based
# RXF 393 = assay: NCI in vitro anti-cancer activity, Renal Cancer; type: cell-based
# SR = assay: NCI in vitro anti-cancer activity, Leukemia; type: cell-based
# HCT-116 = assay: NCI in vitro anti-cancer activity, Colon Cancer; type: cell-based
# Tg DHFR = target: T1, Tg DHFR (Toxoplasma gondii, UniProt Q07422); assay: biochemical; type: biochemical
# T1 sequence (Q07422 1-610): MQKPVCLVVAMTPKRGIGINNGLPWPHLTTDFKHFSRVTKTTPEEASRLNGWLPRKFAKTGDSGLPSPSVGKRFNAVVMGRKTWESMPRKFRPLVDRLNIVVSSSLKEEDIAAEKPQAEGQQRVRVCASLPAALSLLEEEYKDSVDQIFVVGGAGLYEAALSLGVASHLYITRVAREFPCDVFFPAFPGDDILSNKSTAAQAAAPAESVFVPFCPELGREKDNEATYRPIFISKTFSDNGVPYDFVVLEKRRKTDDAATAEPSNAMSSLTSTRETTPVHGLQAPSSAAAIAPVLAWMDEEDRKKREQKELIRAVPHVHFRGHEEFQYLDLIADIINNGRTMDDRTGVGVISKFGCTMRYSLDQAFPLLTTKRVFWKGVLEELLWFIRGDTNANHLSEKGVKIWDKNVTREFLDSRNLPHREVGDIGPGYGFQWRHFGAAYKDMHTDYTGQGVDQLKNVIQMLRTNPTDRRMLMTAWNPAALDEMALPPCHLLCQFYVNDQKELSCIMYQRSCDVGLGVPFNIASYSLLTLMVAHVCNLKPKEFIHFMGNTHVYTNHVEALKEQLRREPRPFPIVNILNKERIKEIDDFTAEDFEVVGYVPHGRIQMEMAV
# Method: (§1) The selectivity ratio is a measure of the selectivity of a compound for Pc DHFR or Tg DHFR and is expressed as the IC50 value of the DHFR from rate liver (RL) divided by the IC50 value of either the Pc DHFR or the Tg DHFR, depending on which organism the compounds are being tested against. For example, the selectivity ratio of a compound is calculated by the following formula: [formula]
# OVCAR-5 = assay: NCI in vitro anti-cancer activity, Ovarian Cancer; type: cell-based
# HS 578T = assay: NCI in vitro anti-cancer activity, Breast Cancer; type: cell-based
# A498 = assay: NCI in vitro anti-cancer activity, renal cancer
# Source text: The compounds identified below were further tested for their in vitro anti-cancer activity by the National Cancer Institute.
# HL-60 (TB) = assay: NCI in vitro anti-cancer activity, Leukemia; type: cell-based; conditions: Table 29, Leukemia
# RL DHFR = target: T2, RL DHFR (Rattus norvegicus, UniProt Q920D2); assay: Inhibition of DHFR from rat liver; type: biochemical
# T2 construct: Toxoplasmosis gondii (Tg) and rat liver (RL); from tissue; host or cells: rat liver
# T2 sequence (Q920D2 1-187): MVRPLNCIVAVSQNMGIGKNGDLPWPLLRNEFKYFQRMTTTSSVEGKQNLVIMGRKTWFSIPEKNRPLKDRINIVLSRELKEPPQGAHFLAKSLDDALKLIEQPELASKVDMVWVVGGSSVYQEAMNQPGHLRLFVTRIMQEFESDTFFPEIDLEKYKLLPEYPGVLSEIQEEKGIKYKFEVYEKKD
# Method: as §1
# [1] = Table 29, Ovarian Cancer, IGROV1
# [2] = Table 29, Prostate Cancer, DU-145
# [3] = Table 29, Non-Small Cell Lung Cancer, NCI-H226
# [4] = Table 29, Ovarian Cancer, SK-OV-3
# [5] = Table 29, Colon Cancer, COLO 205
# [6] = Table 29, Ovarian Cancer, OVCAR-4
# [7] = Table 29, Non-Small Cell Lung Cancer, NCI-H23
# [8] = Table 29, Renal Cancer, RXF 393
# [9] = Table 29, Ovarian Cancer, OVCAR-5
# [10] = Table 29, Non-Small Cell Lung Cancer, read-out: GI50
structure (smiles),measurement,setting,value
Nc1nc(N)c2c(CNc3ccc(C(=O)N[C@@H](CCC(=O)O)C(=O)O)cc3)c[nH]c2n1 [Compound 9],GI50,"IGROV1; Homo sapiens, IGROV-1, IGROV1, Ovarian Cancer",< 0.01 µM
same,GI50,"CAKI-1; Homo sapiens, CAKI-1, Renal Cancer",< 0.01 µM
same,GI50,"SW-620; Homo sapiens, SW-620, Colon Cancer",3.15 µM
same,GI50,"M14; Homo sapiens, M14, Melanoma",< 0.01 µM
same,GI50,"EKVX; Homo sapiens, Non-Small Cell Lung Cancer, read-out: GI50",39.7 µM
same,GI50,"DU-145; Homo sapiens, DU-145, Prostate Cancer",0.0109 µM
same,GI50,"NCI-H226; Homo sapiens, NCI-H226, Non-Small Cell Lung Cancer",> 100 µM
same,GI50,"SK-OV-3; Homo sapiens, SK-OV-3, Ovarian Cancer",> 100 µM
same,GI50,"COLO 205; Homo sapiens, COLO 205, Colon Cancer",> 100 µM
same,GI50,"SF-295; Homo sapiens, SF-295, CNS Cancer",< 0.01 µM
same,GI50,"OVCAR-4; Homo sapiens, OVCAR-4, Ovarian Cancer",> 100 µM
same,GI50,"SN12C; Homo sapiens, Renal Cancer",< 0.01 µM
same,GI50,"LOX IMVI; Homo sapiens, Melanoma",< 0.01 µM
same,GI50,"U251; Homo sapiens, U-251, U251, CNS Cancer",< 0.01 µM
same,GI50,"SNB-75; Homo sapiens, SNB-75, CNS Cancer",< 0.01 µM
same,GI50,"786-0; Homo sapiens, 786-0, Renal Cancer",< 0.01 µM
same,GI50,"SNB-19; Homo sapiens, SNB-19, CNS Cancer",> 100 µM
same,GI50,"SK-MEL-28; Homo sapiens, SK-MEL-28, Melanoma",> 100 µM
same,GI50,"KM12; Homo sapiens, KM12, Colon Cancer",33.2 µM
same,GI50,"MDA-MB-231/ATCC; Homo sapiens, Breast Cancer",> 100 µM
same,GI50,"NCI-H23; Homo sapiens, NCI-H23, Non-Small Cell Lung Cancer",0.0575 µM
same,GI50,"RXF 393; Homo sapiens, RXF 393, Renal Cancer",> 100 µM
same,GI50,"SR; Homo sapiens, Leukemia",> 100 µM
same,GI50,HCT-116; Homo sapiens,< 0.01 µM
same,IC50,Tg DHFR,0.21 µM
same,GI50,"OVCAR-5; Homo sapiens, OVCAR-5, Ovarian Cancer",> 100 µM
same,GI50,"HS 578T; Homo sapiens, Breast Cancer",> 100 µM
COc1ccc(CCc2cn(Cc3ccccc3)c3nc(N)nc(C)c23)cc1 [Compound 113-118],GI50,IGROV1; [1],68.2 µM
same,GI50,"CAKI-1; Table 29, Renal Cancer, CAKI-1",> 100 µM
same,GI50,"SW-620; Table 29, Colon Cancer, SW-620",> 100 µM
same,GI50,"M14; Table 29, Melanoma, M14",93.6 µM
same,GI50,DU-145; [2],> 100 µM
same,GI50,NCI-H226; [3],> 100 µM
same,GI50,SK-OV-3; [4],> 100 µM
same,GI50,COLO 205; [5],38.2 µM
same,GI50,"SF-295; Table 29, CNS Cancer, SF-295",79.3 µM
same,GI50,OVCAR-4; [6],80.1 µM
same,GI50,"A498; Table 29, Renal Cancer, A498",14.2 µM
same,GI50,HL-60 (TB),> 100 µM
same,GI50,"SN12C; Table 29, Renal Cancer",> 100 µM
same,GI50,"LOX IMVI; Table 29, Melanoma",50 µM
same,GI50,"SNB-75; Table 29, CNS Cancer, SNB-75",> 100 µM
same,GI50,"786-0; Table 29, Renal Cancer, 786-0",> 100 µM
same,% inhibition RL DHFR,RL DHFR; @ 31 μM,48% @
same,GI50,"SNB-19; Table 29, CNS Cancer, SNB-19",> 100 µM
same,GI50,"SK-MEL-28; Table 29, Melanoma, SK-MEL-28",> 100 µM
same,GI50,"KM12; Table 29, Colon Cancer, KM12",48.4 µM
same,GI50,"MDA-MB-231/ATCC; Table 29, Breast Cancer",< 100 µM
same,GI50,NCI-H23; [7],97.3 µM
same,GI50,RXF 393; [8],94.7 µM
same,GI50,"HCT-116; Table 29, Colon Cancer",48.3 µM
same,% inhibition Tg DHFR,Tg DHFR; @ 31 μM,15% @ 31 μM
same,GI50,OVCAR-5; [9],> 100 µM
same,GI50,"HS 578T; Table 29, Breast Cancer",< 100 µM
COc1ccccc1CCc1cn(Cc2ccccc2)c2nc(N)nc(C)c12 [Compound 113-148],GI50,IGROV1; [1],14.2 µM
same,GI50,"CAKI-1; Table 29, Renal Cancer, CAKI-1",11.6 µM
same,GI50,"SW-620; Table 29, Colon Cancer, SW-620",17.1 µM
same,GI50,"M14; Table 29, Melanoma, M14",12 µM
same,GI50,EKVX; [10],5.78 µM
same,GI50,DU-145; [2],13.1 µM
same,GI50,NCI-H226; [3],12.4 µM
same,GI50,SK-OV-3; [4],17.3 µM
same,GI50,COLO 205; [5],11.7 µM
same,GI50,"SF-295; Table 29, CNS Cancer, SF-295",8.43 µM
same,GI50,OVCAR-4; [6],8.88 µM
same,GI50,"A498; Table 29, Renal Cancer, A498",1.94 µM
same,GI50,HL-60 (TB),4.81 µM
same,GI50,"SN12C; Table 29, Renal Cancer",13.3 µM
same,GI50,"LOX IMVI; Table 29, Melanoma",13.7 µM
same,GI50,"U251; Table 29, CNS Cancer, U251",10.4 µM
same,GI50,"SNB-75; Table 29, CNS Cancer, SNB-75",17.6 µM
same,GI50,"786-0; Table 29, Renal Cancer, 786-0",11.6 µM
same,% inhibition RL DHFR,RL DHFR; @ 85 μM,27% @
same,GI50,"SNB-19; Table 29, CNS Cancer, SNB-19",10.9 µM
same,GI50,"SK-MEL-28; Table 29, Melanoma, SK-MEL-28",15.7 µM
same,GI50,"KM12; Table 29, Colon Cancer, KM12",12.2 µM
same,GI50,"MDA-MB-231/ATCC; Table 29, Breast Cancer",10.8 µM
same,GI50,NCI-H23; [7],8.47 µM
same,GI50,RXF 393; [8],11.1 µM
same,GI50,"SR; Table 29, Leukemia",3.51 µM
same,GI50,"HCT-116; Table 29, Colon Cancer",4.51 µM
same,% inhibition Tg DHFR,Tg DHFR; @ 85 μM,27% @ 85 μM
same,GI50,OVCAR-5; [9],10.8 µM
same,GI50,"HS 578T; Table 29, Breast Cancer",14.9 µM
COc1cc(CCc2c[nH]c3nc(N)nc(C)c23)cc(OC)c1OC [Compound 113-154A],GI50,IGROV1; [1],17.3 µM
same,GI50,"CAKI-1; Table 29, Renal Cancer, CAKI-1",49.5 µM
same,GI50,"M14; Table 29, Melanoma, M14",29.8 µM
same,GI50,EKVX; Non-Small Cell Lung Cancer,selective
same,GI50,EKVX; [10],5.21 µM
same,GI50,DU-145; [2],75.6 µM
same,GI50,NCI-H226; [3],23 µM
same,GI50,SK-OV-3; [4],88.8 µM
same,GI50,COLO 205; [5],48.2 µM
same,GI50,"SF-295; Table 29, CNS Cancer, SF-295",36.6 µM
same,GI50,OVCAR-4; [6],77.8 µM
same,GI50,A498; A498 renal cancer cell line,selective
same,GI50,"A498; Table 29, Renal Cancer, A498",0.845 µM
same,GI50,HL-60 (TB),41.8 µM
same,GI50,"SN12C; Table 29, Renal Cancer",43.1 µM
same,GI50,"LOX IMVI; Table 29, Melanoma",30 µM
same,GI50,"U251; Table 29, CNS Cancer, U251",23.4 µM
same,GI50,"SNB-75; Table 29, CNS Cancer, SNB-75",27.5 µM
same,GI50,"786-0; Table 29, Renal Cancer, 786-0",32.8 µM
same,IC50,"RL DHFR; Table 26, read-out: Inhibitory Concentrations (IC50) RL DHFR",2.3 µM
same,GI50,"SNB-19; Table 29, CNS Cancer, SNB-19",67.4 µM
same,GI50,"KM12; Table 29, Colon Cancer, KM12",46.5 µM
same,GI50,"MDA-MB-231/ATCC; Table 29, Breast Cancer",37.3 µM
same,GI50,NCI-H23; [7],26.9 µM
same,GI50,RXF 393; [8],32.7 µM
same,GI50,"SR; Table 29, Leukemia",32.5 µM
same,GI50,"HCT-116; Table 29, Colon Cancer",36.8 µM
same,Selectivity Ratio: RL DHFR/Tg,Tg DHFR; Table 26,0.23
same,IC50,"Tg DHFR; Table 26, read-out: Inhibitory Concentrations (IC50) Tg DHFR",10.2 µM
same,GI50,"HS 578T; Table 29, Breast Cancer",27 µM
